From ChEMBL document CHEMBL3085746, “Discovery of novel PTP1B inhibitors via pharmacophore-oriented scaffold hopping from Ertiprotafib” (Bioorg Med Chem Lett, 2013)

Tests used:
[1] = target: T1, Tyrosine-protein phosphatase non-receptor type 1 (Homo sapiens) (UniProt P18031); experiment: Inhibition of GST-tagged recombinant human PTP1B at 100 uM
T1 sequence (whole entry): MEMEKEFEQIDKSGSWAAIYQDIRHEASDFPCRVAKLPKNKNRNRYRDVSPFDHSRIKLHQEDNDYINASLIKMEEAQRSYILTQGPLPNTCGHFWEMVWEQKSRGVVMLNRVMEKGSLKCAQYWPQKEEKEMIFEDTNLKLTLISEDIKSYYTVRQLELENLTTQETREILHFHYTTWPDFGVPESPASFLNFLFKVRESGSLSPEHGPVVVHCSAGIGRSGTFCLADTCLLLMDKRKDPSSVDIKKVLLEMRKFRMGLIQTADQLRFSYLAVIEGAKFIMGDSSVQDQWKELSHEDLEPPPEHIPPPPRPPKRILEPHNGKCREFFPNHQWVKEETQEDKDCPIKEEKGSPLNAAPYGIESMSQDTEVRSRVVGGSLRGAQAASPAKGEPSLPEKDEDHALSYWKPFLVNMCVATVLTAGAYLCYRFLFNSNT

[2] = target: T2, Tyrosine-protein phosphatase non-receptor type 1 (Homo sapiens, UniProt P18031); experiment: Inhibition of GST-tagged recombinant human PTP1B
T2 sequence (P18031 whole entry): T1 sequence (whole entry)

| inhibition [1] | IC50 [2] | SMILES |
| --- | --- | --- |
| 98.4% | 40.3 µM | O=C(O)[C@@H](Cc1ccccc1)Oc1ccc(-n2c3ccccc3c3ccccc32)cc1 |
| 95% | 23.9 µM | O=C(N[C@H](Cc1ccccc1)C(=O)O)c1ccc(CN(Cc2ccccc2)Cc2ccccc2)cc1 |
| 51.8% |  | O=C(N[C@H](Cc1ccccc1)C(=O)O)c1ccc(Cn2c3ccccc3c3ccccc32)cc1 |
| 83.8% |  | O=C(N[C@H](Cc1ccccc1)C(=O)O)c1ccc(CN(c2ccccc2)c2ccccc2)cc1 |
| < 40% |  | O=C(N[C@H](Cc1ccccc1)C(=O)O)c1ccc(C(=O)N(Cc2ccccc2)Cc2ccccc2)cc1 |
| < 40% |  | COc1ccc(N(Cc2ccc(O[C@H](Cc3ccccc3)C(=O)O)cc2)C(=O)c2ccc(C(=O)O)cc2)cc1 |
| 44.3% |  | O=C(O)CN(Cc1ccccc1)c1ccc(CN(Cc2ccc3c(c2)OCO3)c2ccc(F)cc2)cc1 |
| < 40% |  | COc1ccc(N(Cc2ccc(O[C@H](Cc3ccccc3)C(=O)O)cc2)C(=O)c2ccc3c(c2)OCO3)cc1 |
| 106% | 10.2 µM | O=C(O)CC(CC(=O)c1ccccc1)c1ccc(-n2c3ccccc3c3ccccc32)cc1 (stereo not given) |
| 67.3% |  | O=C(O)CN(Cc1ccccc1)Cc1ccc(-n2c3ccccc3c3ccccc32)cc1 |

Second part, the compound before the results:

| SMILES | inhibition [1] | IC50 [2] |
| --- | --- | --- |
| COc1ccc(N(Cc2ccc3c(c2)OCO3)C(=O)c2ccc(CN(CC(=O)O)Cc3ccccc3)cc2)cc1 | < 40% |  |
| O=C(N[C@H](Cc1ccccc1)C(=O)O)c1ccc(CN(Cc2ccccc2)c2ccccc2)cc1 | 113% | 3.9 µM |
| COc1ccc(N(Cc2ccc3c(c2)OCO3)C(=O)c2ccc(C(CC(=O)O)CC(=O)c3ccccc3)cc2)cc1 (stereo not given) | < 40% |  |
| O=C(O)[C@@H](Cc1ccccc1)Oc1ccc(C(=O)N(Cc2ccc3c(c2)OCO3)c2ccc(F)cc2)cc1 | < 40% |  |
| O=C(O)[C@@H](Cc1ccccc1)Oc1c(Br)cc(-c2c3ccccc3c(Br)c3oc4ccccc4c23)cc1Br | 100% | 0.87 µM |
| O=C(O)CN(C(=O)Cc1ccccc1)c1ccc(CN(Cc2ccc3c(c2)OCO3)c2ccc(F)cc2)cc1 | 96.4% | 1.3 µM |
| O=C(N[C@H](Cc1ccccc1)C(=O)O)c1ccc(Cn2c(Cc3ccccc3)nc3ccccc32)cc1 | 53.4% |  |
| COc1ccc(N(Cc2ccc(C(=O)N[C@H](Cc3ccccc3)C(=O)O)cc2)Cc2ccc3c(c2)OCO3)cc1 | 100% |  |
| O=C(O)CC(CC(=O)c1ccccc1)c1ccc(Cn2c3ccccc3c3ccccc32)cc1 (stereo not given) | 98% | 10 µM |
| O=C(O)CC(CC(=O)c1ccccc1)c1ccc(CN(Cc2ccc3c(c2)OCO3)c2ccc(F)cc2)cc1 (stereo not given) | 59.1% |  |
| O=C(O)[C@@H](Cc1ccccc1)Oc1ccc(CN(Cc2ccc3c(c2)OCO3)c2ccc(F)cc2)cc1 | 112% | 10.4 µM |
| O=C(O)CC(CC(=O)c1ccccc1)c1ccc(OC(c2ccccc2)c2ccccc2)cc1 (stereo not given) | 61% |  |
